Results from US8461328B2, “Tricyclic heterocyclic compounds, compositions and methods of use thereof” (Genentech, Inc., priority 2010, dated 2013).

Tests used:
Assay type in all cases: biochemical
JAK2 = molecular target: T1, JAK2 (Homo sapiens, UniProt O60674); test: JAK2 inhibition (Table 4); conditions: read-out: JAK2 Ki
T1 construct: made in house; host or cells: SF9 insect cells (baculovirus)

TYK2 = molecular target: T2, TYK2 (Homo sapiens, UniProt P29597); test: TYK2 inhibition (Table 4)
T2 construct: made in house; host or cells: SF9 insect cells (baculovirus)
T2 sequence (P29597 873-1187): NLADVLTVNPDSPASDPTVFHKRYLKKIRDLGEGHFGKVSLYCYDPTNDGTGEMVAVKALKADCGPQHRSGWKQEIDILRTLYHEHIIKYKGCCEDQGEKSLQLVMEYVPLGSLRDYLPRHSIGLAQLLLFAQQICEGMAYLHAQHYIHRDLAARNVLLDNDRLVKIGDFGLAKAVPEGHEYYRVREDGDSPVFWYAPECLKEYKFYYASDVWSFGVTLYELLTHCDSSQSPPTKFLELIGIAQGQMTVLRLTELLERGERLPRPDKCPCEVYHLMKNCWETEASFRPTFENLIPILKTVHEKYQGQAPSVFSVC

JAK1 = molecular target: T3, JAK1 (Homo sapiens, UniProt P23458); test: JAK1 inhibition (Table 4); conditions: read-out: JAK1 Ki
T3 construct: made in house; host or cells: SF9 insect cells (baculovirus)
T3 sequence (P23458 852-1154): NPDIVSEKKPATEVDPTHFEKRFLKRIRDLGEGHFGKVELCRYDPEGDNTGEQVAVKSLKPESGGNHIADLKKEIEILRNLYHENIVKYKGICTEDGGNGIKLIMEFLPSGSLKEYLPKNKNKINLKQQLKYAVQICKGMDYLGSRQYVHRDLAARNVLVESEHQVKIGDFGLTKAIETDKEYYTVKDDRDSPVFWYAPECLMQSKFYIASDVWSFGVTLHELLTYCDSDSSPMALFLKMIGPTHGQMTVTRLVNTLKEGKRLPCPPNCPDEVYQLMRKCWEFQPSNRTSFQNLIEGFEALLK

JAK3 = molecular target: T4, JAK3 (Homo sapiens, UniProt P52333); test: JAK3 inhibition (Table 4); conditions: read-out: JAK3 Ki
T4 construct: made in house; host or cells: SF9 insect cells (baculovirus)
T4 sequence (P52333 783-1124): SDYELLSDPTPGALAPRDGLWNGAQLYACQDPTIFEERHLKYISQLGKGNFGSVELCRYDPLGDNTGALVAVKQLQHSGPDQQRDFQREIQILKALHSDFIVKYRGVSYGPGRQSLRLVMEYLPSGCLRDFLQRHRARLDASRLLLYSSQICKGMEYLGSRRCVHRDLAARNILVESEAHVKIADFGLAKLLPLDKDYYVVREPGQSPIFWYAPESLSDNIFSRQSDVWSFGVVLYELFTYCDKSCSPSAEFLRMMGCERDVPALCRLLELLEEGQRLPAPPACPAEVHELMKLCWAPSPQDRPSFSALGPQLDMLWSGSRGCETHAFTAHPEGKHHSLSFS

T1 sequence (O60674 812-1132): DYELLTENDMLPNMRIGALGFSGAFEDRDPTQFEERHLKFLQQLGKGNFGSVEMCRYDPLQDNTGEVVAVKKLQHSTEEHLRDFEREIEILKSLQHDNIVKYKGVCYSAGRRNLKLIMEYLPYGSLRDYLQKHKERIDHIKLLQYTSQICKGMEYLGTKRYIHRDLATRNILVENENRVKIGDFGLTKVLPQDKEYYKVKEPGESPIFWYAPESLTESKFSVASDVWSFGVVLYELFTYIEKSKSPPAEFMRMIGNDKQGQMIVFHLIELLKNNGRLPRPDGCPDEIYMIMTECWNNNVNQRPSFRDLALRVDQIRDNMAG

Structure (SMILES)	Ki (JAK2) [µM]	Ki (TYK2) [µM]	Ki (JAK1) [µM]	Ki (JAK3) [µM]
CNC(=O)c1nc2cnc3[nH]ccc3c2n1C1CCN(Cc2ccccc2)CC1 [Example 159, 1-(1-Benzyl-piperidin-4-yl)-1,6-dihydro-1,2,3,5,6-tetraaza-as-indacene-2-carboxylic acid methylamide]	0.0238	2.33	0.0206	0.0326
CCN1CCC(n2c([C@@H](C)O)nc3cnc4[nH]ccc4c32)C(F)(F)C1 (single isomer, unassigned) [Example 879]	0.0222	0.0265	0.00388	0.0279
N#CCCN1CCC(n2c(CC3CCOCC3)nc3cnc4[nH]ccc4c32)CC1 [Example 812, 3-{4-[2-(Tetrahydro-pyran-4-ylmethyl)-6H-1,3,5,6-tetraaza-as-indacen-1-yl]-piperidin-1-yl}-propionitrile]	0.213	0.316	0.0378	0.168
CC1CN(CCC#N)CCC1n1cnc2cnc3[nH]ccc3c21 (racemic) [Example 324, 3-[3-Methyl-4-(6H-1,3,5,6-tetraaza-as-indacen-1-yl)-piperidin-1-yl]-propionitrile]	0.0006	0.00376	0.00063	0.0052
COC1CNCCC1n1cnc2cnc3[nH]ccc3c21 (racemic) [Example 537, 1-(3-Methoxy-piperidin-4-yl)-1,6-dihydro-1,3,5,6-tetraaza-as-indacene]	0.0338	0.122	0.0252	0.322
N#CCCN1CCC(n2c(Cc3cccnc3)nc3cnc4[nH]ccc4c32)CC1 [Example 403, 3-[4-(2-Pyridin-3-ylmethyl-6H-1,3,5,6-tetraaza-as-indacen-1-yl)-piperidin-1-yl]-propionitrile]	0.0192	0.102	0.0103	0.0242
CC(C)(C)OC(=O)N1CC(CN[C@H]2CC[C@H](n3cnc4cnc5[nH]ccc5c43)CC2)C1 [Example 557, trans 3-{[4-(6H-1,3,5,6-Tetraaza-as-indacen-1-yl)-cyclohexylamino]-methyl}-azetidine-1-carboxylic acid tert-butyl ester]	0.136	0.443	0.0214	0.31
COCC(=O)NC1CCCC(n2cnc3cnc4[nH]ccc4c32)C1 (single isomer, unassigned) [Example 481, 2-Methoxy-N-[3-(6H-1,3,5,6-tetraaza-as-indacen-1-yl)-cyclohexyl]-acetamide]	0.268	0.793	0.127	0.833
CC1(n2cnc3cnc4[nH]ccc4c32)CCCN(C(=O)CC#N)C1 (racemic) [Example 706, 3-[3-Methyl-3-(6H-1,2,3,5,6-tetraaza-as-indacen-1-yl)-piperidin-1-yl]-3-oxo-propionitrile]	0.0675	0.207	0.0281	0.0206
C[C@@H](O)c1nc2cnc3[nH]ccc3c2n1C1CCC(n2ccnn2)CC1 (stereo partly drawn) [Example 1003, (R)-1-[1-(4-[1,2,3]Triazol-1-yl-cyclohexyl)-1,6-dihydro-1,3,5,6-tetraaza-as-indacen-2-yl]-ethanol]	0.0635	0.0382	0.00516	0.129
O=c1ccn(Cc2nc3cnc4[nH]ccc4c3n2C2CCOCC2)c(=O)[nH]1 [Example 470, 1-[1-(Tetrahydro-pyran-4-yl)-1,6-dihydro-1,3,5,6-tetraaza-as-indacen-2-ylmethyl]-1H-pyrimidine-2,4-dione]	0.557	0.357	0.196	0.0648
CN(C)CC(=O)NCCc1nc2cnc3[nH]ccc3c2n1C1CCCCC1 [Example 510, N-[2-(1-Cyclohexyl-1,6-dihydro-1,3,5,6-tetraaza-as-indacen-2-yl)-ethyl]-2-dimethylamino-acetamide]	0.0511	0.0208	0.00391	0.132
Cc1cc(CN2CCC(n3c(C(C)O)nc4cnc5[nH]ccc5c43)C(F)C2)on1 (stereo not shown) [Example 895, 1-{1-[3-Fluoro-1-(3-methyl-isoxazol-5-ylmethyl)-piperidin-4-yl]-1,6-dihydro-1,3,5,6-tetraaza-as-indacen-2-yl}-ethanol]	0.0191	0.0991	0.00127	0.00334
N#CCCN1CCC(n2c(COCC3CCOC3)nc3cnc4[nH]ccc4c32)CC1 (stereo not shown) [Example 836, 3-{4-[2-(Tetrahydro-furan-3-ylmethoxymethyl)-6H-1,3,5,6-tetraaza-as-indacen-1-yl]-piperidin-1-yl}-propionitrile]	0.089	0.384	0.0386	0.0951
c1cc(N2CCC(n3cnc4cnc5[nH]ccc5c43)CC2)ncn1 [Example 65, 1-(1-Pyrimidin-4-yl-piperidin-4-yl)-1,6-dihydro-1,3,5,6-tetraaza-as-indacene]	0.0347	0.107	0.0149	0.281
C[C@@H](O)c1nc2cnc3[nH]ccc3c2n1C1CCN(c2cccc(C#N)n2)CC1 [Example 702, 4-[2-((R)-1-Hydroxy-ethyl)-6H-1,2,3,5,6-tetraaza-as-indacen-1-yl]-3,4,5,6-tetrahydro-2H-[1,2]bipyridinyl-6′-carbonitrile]	0.0264	0.0237	0.00369	0.0406
C[C@@H](O)c1nc2cnc3[nH]ccc3c2n1[C@H]1CC[C@@H](NCC(F)F)C1 [Example 1005, (R)-1-{1-[(1S,3R)-3-(2,2-Difluoro-ethylamino)-cyclopentyl]-1,6-dihydro-1,3,5,6-tetraaza-as-indacen-2-yl}-ethanol]	0.0861	0.0181	0.00236	0.0263
N#CCCN1CCC(n2c(C(F)F)nc3cnc4[nH]ccc4c32)CC1 [Example 308, 3-[4-(2-Difluoromethyl-6H-1,3,5,6-tetraaza-as-indacen-1-yl)-piperidin-1-yl]-propionitrile]	0.00263	0.0123	0.0015	0.00604
NC(=O)Cc1nc2cnc3[nH]ccc3c2n1C1CCCOC1 (racemic) [Example 960, 2-[1-(Tetrahydro-pyran-3-yl)-1,6-dihydro-1,3,5,6-tetraaza-as-indacen-2-yl]-acetamide]	0.208	0.224	0.0304	0.236
CC(O)c1nc2cnc3[nH]ccc3c2n1C1CC2CCC1O2 (single isomer, unassigned) [Example 905, (o)-1-[1-(7-Oxa-bicyclo[2.2.1]hept-2-yl)-1,6-dihydro-1,3,5,6-tetraaza-as-indacen-2-yl]-ethanol]	0.0964	0.0571	0.0147	0.128
C[C@@H](O)c1nc2cnc3[nH]ccc3c2n1[C@@H]1CCC[C@@H](O)C1 [Example 689, (1R,3R)-3-[2-((R)-1-Hydroxy-ethyl)-6H-1,2,3,5,6-tetraaza-as-indacen-1-yl]-cyclohexanol]	0.0524	0.00559	0.00273	0.057
O=C(Cc1nc2cnc3[nH]ccc3c2n1C1CCCOC1)N1CCCOCC1 (racemic) [Example 980, 1-[1,4]Oxazepan-4-yl-2-[1-(tetrahydro-pyran-3-yl)-1,6-dihydro-1,3,5,6-tetraaza-as-indacen-2-yl]-ethanone]	0.506	0.109	0.0788	0.3
OCc1nc2cnc3[nH]ccc3c2n1C1CCN(Cc2ccccc2)CC1 [Example 22, [1-(1-Benzyl-piperidin-4-yl)-1,6-dihydro-1,2,3,5,6-tetraaza-as-indacen-2-yl]methanol]	0.00644	0.0699	0.00173	0.0108
CC(=O)NCc1nc2cnc3[nH]ccc3c2n1C1CCN(CCC#N)CC1 [Example 492, N-{1-[1-(2-Cyano-ethyl)-piperidin-4-yl]-1,6-dihydro-1,3,5,6-tetraaza-as-indacen-2-ylmethyl}-acetamide]	0.0865	0.21	0.016	0.2
CC1(C(=O)N2CCC[C@@H](n3cnc4cnc5[nH]ccc5c43)C2)CC1 [Example 227, (1-Methyl-cyclopropyl)-[(R)-3-(6H-1,3,5,6-tetraaza-as-indacen-1-yl)-piperidin-1-yl]-methanone]	0.00316	0.0125	0.00641	0.083
N#CCCN1CCC(n2c(CC(=O)N3CCS(=O)(=O)CC3)nc3cnc4[nH]ccc4c32)CC1 [Example 267, 3-(4-{2-[2-(1,1-Dioxo-1lambda*6*-thiomorpholin-4-yl)-2-oxo-ethyl]-6H-1,3,5,6-tetraaza-as-indacen-1-yl}-piperidin-1-yl)-propionitrile]	0.0556	0.0632	0.00752	0.00702
NC1CCC(n2cnc3cnc4[nH]ccc4c32)C1 (racemic) [Example 294, 3-(6H-1,3,5,6-Tetraaza-as-indacen-1-yl)-cyclopentylamine]	0.176	0.38	0.0376	0.151
FC1CNCCC1n1nnc2cnc3[nH]ccc3c21 (racemic) [Example 518, 1-(3-Fluoro-piperidin-4-yl)-1,6-dihydro-1,2,3,5,6-pentaaza-as-indacene]	0.854	1.99	0.227	1.45
